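Results reflect a 48-hour exposure of cells in 96-well plates to compound at five concentrations. GI50: concentration for 50% inhibition of growth. Definition used: TGI = concentration required for complete inhibition of growth.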
Legend:
Assay in all cases: NCI anticancer screen, dose series, 48 h
[1] = test system: HOP-92 NSCLC
[2] = test system: COLO 205 colon
[3] = test system: MDA-MB-435
[4] = test system: U251 CNS
[5] = test system: SR leukemia
[6] = test system: NCI-H226 lung
[7] = test system: UACC-62 melanoma
[8] = test system: OVCAR-5 ovarian
[9] = test system: SK-OV-3 ovarian
[10] = test system: OVCAR-8 ovarian
[11] = test system: SF-295 CNS
[12] = test system: NCI/ADR-RES ovarian
[13] = test system: NCI-H460 lung
[14] = test system: HCT-15 colon
[15] = test system: HCC-2998 colon
[16] = test system: SW-620 colon
[17] = test system: RPMI-8226 leukemia
[18] = test system: TK-10 renal
[19] = test system: A549 NSCLC
[20] = test system: HT29 colon
[21] = test system: RXF 393 renal
[22] = test system: BT-549 breast
[23] = test system: SNB-19 CNS
[24] = test system: MCF7 breast
[25] = test system: SK-MEL-2 melanoma
[26] = test system: CCRF-CEM leukemia
[27] = test system: HOP-62 NSCLC
[28] = test system: OVCAR-3 ovarian

**Q.** Which GI50 [1] does the source give for `CCOc1ccccc1C(=O)/C=C/c1cc2ccccc2[nH]c1=O` here?
**A.** 77.8 nM

**Q.** And the TGI [1]?
**A.** 1410 nM

**Q.** What about the GI50 [2] of the same compound?
**A.** 37.1 nM

**Q.** And the TGI [2]?
**A.** 643 nM

**Q.** And the GI50 [3]?
**A.** < 10 nM

**Q.** And the TGI [3]?
**A.** 13.9 nM

**Q.** What about the GI50 [4] of the same compound?
**A.** 39.7 nM

**Q.** And the TGI [4]?
**A.** 1330 nM

**Q.** What about the GI50 [5] of the same compound?
**A.** < 10 nM

**Q.** And the TGI [5]?
**A.** > 100000 nM

**Q.** What about the GI50 [6] of the same compound?
**A.** 202 nM

**Q.** And the TGI [6]?
**A.** 6490 nM

**Q.** And the GI50 [7]?
**A.** 42.3 nM

**Q.** And the TGI [7]?
**A.** 1930 nM

**Q.** What about the GI50 [8] of the same compound?
**A.** 193 nM

**Q.** And the TGI [8]?
**A.** 1440 nM

**Q.** What about the GI50 [9] of the same compound?
**A.** 106 nM

**Q.** And the TGI [9]?
**A.** 15200 nM

**Q.** And the GI50 [10]?
**A.** 50.7 nM

**Q.** What about the TGI [10] of the same compound?
**A.** 2080 nM

**Q.** And the GI50 [11]?
**A.** 31.1 nM

**Q.** And the TGI [11]?
**A.** 1280 nM

**Q.** What about the GI50 [12] of the same compound?
**A.** 23.4 nM

**Q.** And the TGI [12]?
**A.** 14400 nM

**Q.** And the GI50 [13]?
**A.** 33.2 nM

**Q.** What about the TGI [13] of the same compound?
**A.** 349 nM

**Q.** And the GI50 [14]?
**A.** 33.9 nM

**Q.** What about the TGI [14] of the same compound?
**A.** 1220 nM

**Q.** And the GI50 [15]?
**A.** 126 nM

**Q.** What about the TGI [15] of the same compound?
**A.** 654 nM

**Q.** What about the GI50 [16] of the same compound?
**A.** 19.4 nM

**Q.** What about the TGI [16] of the same compound?
**A.** 1160 nM

**Q.** And the GI50 [17]?
**A.** 28.4 nM

**Q.** And the TGI [17]?
**A.** 991 nM

**Q.** What about the GI50 [18] of the same compound?
**A.** 438 nM

**Q.** What about the TGI [18] of the same compound?
**A.** 2930 nM

**Q.** And the GI50 [19]?
**A.** 74.1 nM

**Q.** What about the TGI [19] of the same compound?
**A.** 12400 nM

**Q.** And the GI50 [20]?
**A.** 23.2 nM

**Q.** And the TGI [20]?
**A.** 2060 nM

**Q.** And the GI50 [21]?
**A.** 32.2 nM

**Q.** What about the TGI [21] of the same compound?
**A.** 340 nM

**Q.** What about the GI50 [22] of the same compound?
**A.** 72 nM

**Q.** What about the TGI [22] of the same compound?
**A.** 1410 nM

**Q.** What about the GI50 [23] of the same compound?
**A.** 45.9 nM

**Q.** What about the TGI [23] of the same compound?
**A.** 1340 nM

**Q.** And the GI50 [24]?
**A.** 35.6 nM

**Q.** What about the TGI [24] of the same compound?
**A.** 1410 nM

**Q.** What about the GI50 [25] of the same compound?
**A.** 65.7 nM

**Q.** And the TGI [25]?
**A.** 3020 nM

**Q.** What about the GI50 [26] of the same compound?
**A.** 29 nM

**Q.** And the TGI [26]?
**A.** > 100000 nM

**Q.** And the GI50 [27]?
**A.** 67.8 nM

**Q.** And the TGI [27]?
**A.** 3470 nM

**Q.** What about the GI50 [28] of the same compound?
**A.** 24.5 nM

**Q.** And the TGI [28]?
**A.** 108 nM
